Values after ≈ are worked out from the molar mass of the structure shown.
What follows are compounds tested on Epidermoid carcinoma cell line (assay: Compound was evaluated for cytotoxicity against vincristine- sensitive (KB/S) human oral epidermoid carcinoma cell line at 7 ug/mL). Details: not given.
Format: functional

SMILES | Cell growth [%]
COC(=O)C1=CC23CCCN4CC[C@@]5(c6cccc(OC)c6N(C(=O)OC)C15CC2)[C@@H]43 (stereo partly specified) | <50

What follows are compounds tested on Epidermoid carcinoma cell line (assay: Compound was evaluated for cytotoxicity against vincristine- resistant (KB/VJ300) human oral epidermoid carcinoma cell line). Details: not given.
Format: functional, cell-based

SMILES | IC50 [µg/mL]
COC(=O)N1c2c(OC)cccc2[C@@]23CCN4CCCC5(CCC12[C@](O)(C(=O)OC)C5)[C@H]43 (stereo partly specified) [KOPSILONGINE] | 15.4 (≈ 34.8 µM)
COC(=O)[C@@H]1CC23CCCN4CC[C@@]5(c6cccc(OC)c6N(C(=O)OC)C15CC2)[C@@H]43 (stereo partly specified) | 21 (≈ 49.2 µM)
COC(=O)N1c2c(OC)cccc2[C@@]23CCN4CC=C[C@]5(CC[C@]12[C@](O)(C(=O)OC)[C@@H]5O)[C@H]43 [KOPSINGINE] | > 25
COC(=O)[C@@H]1CC23CCCN4CC[C@@]5(c6ccccc6NC15CC2)[C@@H]43 (stereo partly specified) [KOPSININE] | 25 (≈ 73.9 µM)

These compounds were tested on Epidermoid carcinoma cell line (assay: Compound was evaluated for cytotoxicity against vincristine- resistant (KB/VJ300) human oral epidermoid carcinoma cell line; poor activity or moderate activity). Details: not given.
Format: functional, cell-based

SMILES | IC50
COC(=O)N1c2c(ccc3c2OCO3)[C@@]23CC(=O)N(CCCC4=CC[C@]12[C@](O)(C(=O)OC)C4)C3=O [PAUCIFLORINE A] | poor activity or moderate activity
COC(=O)N1c2c(OC)cccc2[C@@]23CCN4CC[C@H](O)[C@]5(CC[C@]12[C@](O)(C(=O)OC)[C@@H]5O)[C@H]43 [KOPSINGANOL] | poor activity or moderate activity
COC(=O)N1c2c(OC)cccc2[C@@]23[C@H]4C(=O)[C@@]5(O)[C@H]6O[C@H]4N4CC[C@H](O)[C@]6(CC[C@]125)[C@H]43 | poor activity or moderate activity
COC(=O)N1c2c(OC)cccc2[C@@]23CCN4C[C@H]5O[C@H]5[C@]5(CC[C@]12[C@](O)(C(=O)OC)[C@@H]5O)[C@H]43 | poor activity or moderate activity
COC(=O)N1c2ccccc2[C@@]23[C@@H]4CN5CCC[C@]6(CC[C@]12[C@@H](O)[C@@H]6C4=O)[C@H]53 [FRUTICOSAMINE] | poor activity or moderate activity
COC(=O)N1c2c(ccc3c2OCO3)[C@]23CC(=O)C[C@@]4(CCCN(C=O)[C@@H]42)CCC13C(=O)OC (stereo partly specified) [DANUPHYLLINE] | poor activity or moderate activity
COC(=O)N1c2c(ccc3c2OCO3)[C@]23[C@H]4OC(=O)[C@@]5(O)C[C@@]6(CCCN(C4=O)[C@@]62O)CC[C@]135 [paucidactine A] | poor activity or moderate activity
CCO[C@H]1C[C@@H]2O[C@@H]3[C@]14CC[C@@]1(N(C(=O)OC)c5c(OC)cccc5[C@@]15CCN2[C@@H]45)[C@]3(O)C(=O)OC [KOPSIDINE B] | poor activity or moderate activity

The compounds below were run on Epidermoid carcinoma cell line (assay: Compound was evaluated for cytotoxicity against vincristine-resistant (KB/VJ300) human oral epidermoid carcinoma cell line). Details: not given.
Format: functional, cell-based

SMILES | IC50 [µg/mL]
COC(=O)N1c2c(ccc3c2OCO3)[C@@]23CCN4CCCC5(CCC12[C@](O)(C(=O)OC)C5)[C@]43C#N (stereo partly specified) [LAHADININE A] | 2.5 (≈ 5.19 µM)
COC(=O)N1c2c(ccc3c2OCO3)[C@@]23CCN4CCCC5(CCC12[C@](O)(C(=O)OC)C5)[C@H]43 (stereo partly specified) [KOPSAMINE] | 5.6 (≈ 12.3 µM)
COC(=O)C1=CC23CCCN4CC[C@@]5(c6ccc7c(c6N(C(=O)OC)C15CC2)OCO7)[C@@H]43 (stereo partly specified) | 4.4 (≈ 10 µM)
COC(=O)N1c2c(ccc(OC)c2OC)[C@@]23CCN4CCCC5(CCC12[C@](O)(C(=O)OC)C5)[C@H]43 (stereo partly specified) | 1.6 (≈ 3.39 µM)
COC(=O)[C@@H]1CC23CCCN4CC[C@@]5(c6ccccc6N(C(=O)OC)C15CC2)[C@@H]43 (stereo partly specified) [PLEIOCARPINE] | 3.1 (≈ 7.82 µM)
COC(=O)N1c2ccccc2[C@@]23CCN4CCCC5(CCC12[C@](O)(C(=O)OC)C5)[C@H]43 (stereo partly specified) [KOPSIFLORINE] | 2.3 (≈ 5.58 µM)

Each compound was assayed on Epidermoid carcinoma cell line (assay: Compound was evaluated for cytotoxicity against vincristine- resistant (KB/VJ300) human oral epidermoid carcinoma cell line; P = poor activity or moderate activity). Details: Homo sapiens, Epidermoid carcinoma cell line; read-out: IC50.
Format: functional, cell-based

SMILES | IC50 [µg/mL]
COC(=O)N1c2c(ccc(O)c2OC)[C@@]23CCN4CCCC5(CCC12[C@](O)(C(=O)OC)C5)[C@H]43 (stereo partly specified) | > 25

Same assay, conditions: epidermoid carcinoma cell line

SMILES | IC50
COC(=O)N1c2c(OC)cccc2[C@@]23CCN4CCC[C@]5(CC[C@]12[C@](O)(C(=O)OC)[C@@H]5O)[C@H]43 [DIHYDROKOPSINGINE] | Poor or moderate activity

From ChEMBL document CHEMBL1130607, “Reversal of multidrug resistance (MDR) by aspidofractinine-type indole alkaloids” (Bioorg Med Chem Lett, 1998)
